Legend:
A549 cells [1] = assay: Cellular permeability and stability by HPLC of cell extracts; format: in vitro ADME; settings: for decrease of concentration inside the cells: 20 μM for 2 h, within 10 h after removal; for concentration inside cells compared with the medium: 2 h; for cell permeability: 2 hr in medium with compound
Procedure: Waters 2695 HPLC System and a C18 column (Symmetry, 3.6 x 75 mm) were used. The column was equilibrated with 10% acetonitrile and eluated with a linear gradient from 10% acetonitrile to 100% acetonitrile in 60 min. Compounds were dissolved in 10% acetonitrile and the purchased compounds (ChemBridge) were used as the standards.
We then determined whether the identified compounds are cell-permeable. Lung cancer A549 cells were cultured in medium containing various concentrations of the respective compound for 2 hr. Cells were harvested and washed with PBS. The compounds were extracted with ethyl acetate from cells and analyzed by HPLC with a C18 column using the purchased compound as the standard. Compounds C2, C5, C9 and C11 are cell-permeable (Fig 6A), which is consistent with their tPSAs <140 angstroms square (Table 1). […] We even noticed that the compound C5 crystalized inside the cells.
A, The cellular permeability of identified compounds. Lung cancer A549 cells were cultured in the presence of various concentrations of compounds for 2h and the compound concentrations in the cell were determined by HPLC chromatography with a C18 column. B, The cellular stability of identified compounds. Lung cancer A549 cells were cultured in the presence of compounds (20 μM) for 2 h and then the medium was removed. Cells were washed with the medium and cultured for additional 5 or 10 h after the compounds were removed. The compound concentrations in the cell were determined by HPLC chromatography with a C18 column. […] A549 cells were grown in the presence of DMSO or compound C5, C9 or C11 (20 μM). Histones were purified and analyzed by SDS-PAGE stained with Commassie blue (lanes 1–4, bottom) or by Western blot with anti-symmetric dimethyl arginine antibody (SYM10) (lanes 1–4, top). B-Raf was immunoprecipitated with anti-B-Raf antibody from whole cell lysates and submitted for Western blot analysis with anti-B-Raf (lanes 5 and 6, bottom) or anti-symmetric dimethyl arginine (lanes 5 and 6, top) antibody.

[2] = tested on: arginine methylation in histone H2A, histone H4 and B-Raf in A549 cells; assay: Western blot of symmetrical arginine dimethylation of PRMT5 substrates in cells; format: cell-based; settings: 20 μM, SYM10 antibody
Procedure: Histones were purified as reported previously. Briefly, cells (1–5 x 10^6) or lung tumors (10–100 mg) were lysated using a glass dounce in 1 ml of 1x Passive Lysis Buffer (Promega) and nuclear pellets were collected by centrifugation at 3,000 rpm for 5 min at 4 °C. The supernatant was discard and the pellets were washed with 1 ml of 1x Passive Lysis Buffer. Nuclear pellets were resuspended in 0.4 ml of the buffer (10 mM Trs-HCl, pH7.9, 0.2 mM EDTA, 1 mM DTT, 20% glycerol, 0.42 M KCl) and incubate for 30 min on ice, and centrifuged at 12,000 rpm for 10 min at 4 °C. The supernatant (histones extract) was transferred to a new tube and histones were precipitated by 20% trichloroacetic acid.
Protein extracts or histones (20 μg) were subjected to 10% or 15% sodium dodecyl sulfate-polyacrylamide gel electrophoresis, respectively then transferred to Immobilon-P membranes (Millipore). The blots were then probed for 2 hours with the primary antibody at dilutions of 1:500 (anti-symmetrical dimethylated arginine, SYM10, EMD Millipore), 1:1,000 (anti-B Raf, ab65050, Abcam) or 1:1,000 (anti-PRMT5, Abcam). The blots were then incubated with a horseradish peroxide-conjugated secondary antibody (1:5,000; Fischer Scientific) for 1.5 h. Immunoreactive proteins were detected using an enhanced chemiluminescence detection system (GE Healthcare) per the manufacturer’s instructions. Protein concentrations were determined using the Bradford protein assay reagent (Bio-Rad).
A, The cellular permeability of identified compounds. Lung cancer A549 cells were cultured in the presence of various concentrations of compounds for 2h and the compound concentrations in the cell were determined by HPLC chromatography with a C18 column. B, The cellular stability of identified compounds. […] The compound concentrations in the cell were determined by HPLC chromatography with a C18 column. […] Histones were purified and analyzed by SDS-PAGE stained with Commassie blue (lanes 1–4, bottom) or by Western blot with anti-symmetric dimethyl arginine antibody (SYM10) (lanes 1–4, top). […]

A549 cells [3] = assay: Cell growth by cell counting, A549; format: cell-based; settings: for A549 cell growth inhibition: various concentrations and time points
Procedure: Lung cancer A549 (ATCC) and PC14 (ATCC) cells were cultured in minimum essential medium (Cellgro) with 10% (v/v) fetal bovine serum (FBS) (HyClone), 2% vitamins, 1% L-glutamine, 1% non-essential amino acids and 1% sodium pyruvate. For the treatment with identified compounds, cells (2, 000 cells/well) were seeded in 24-well plates in the medium containing 2% FBS. The fresh medium containing identified compounds was added 24 hours later. Cells were cultured for various times in a CO2 incubator and the cell numbers were counted. Each experiment was performed in triplicate.
A, Lung cancer A549 cells were cultured in the presence of various concentrations (μM) of identified compounds and growth inhibition was determined by cell counting at various time points. B, Lung cancer PC14 cells were cultured in the presence of DMSO or various concentrations of identified compounds and growth inhibition was determined by cell counting 2 days post the compound treatment. C, The serum concentrations of compound C9 after oral administration. Mice were sacrificed and blood samples were collected immediately before (0 h) and at 2, 4, 6 and 8h after compound administration.
Fig 8 The C9 analogue has improved PRMT5-inhibitory efficacy and oral drug availability. A, The chemical structure of the C9 analogue. B, Compound C9a inhibited methylation of SmD3 by PRMT5. The recombinant SmD3 (2 μg) was used as the substrate in the absence (lane 5) or presence of 1, 10 or 100 μM compounds as indicated. […] C, C9a has improved efficacy to inhibit lung cancer growth. A549 cells were cultured in the presence of various concentrations of C9 or C9a and growth inhibition was determined by cell counting 2 days post the compound treatment. […] Male BALB/c mice were randomized and administrated C9a by oral gavage and compound concentrations in blood samples were determined.

Structure (SMILES)	decrease of concentration inside the cells (A549 cells [1])	concentration inside cells compared with the medium (A549 cells [1])	cell permeability (A549 cells [1])	arginine methylation in histone H2A, histone H4 and B-Raf [2]	A549 cell growth inhibition (A549 cells [3])	inhibition of growth of lung cancer cells compared to C9 (A549 cells [3]; A549 cells, 2 days)	accumulation inside cells (A549 cells [1]) [fold]	IC50 (A549 cells [3]; Homo sapiens, A549 cells) [nM]
Cn1cc(C(c2ccc(O)c(O)c2O)c2cn(C)c3ccccc23)c2ccccc21 [Compound C11]	about 2 folds	higher than those in the medium	cell-permeable	significantly inhibited	inhibited A549 cell growth in a dosage- and time-dependent manner at sub μM concentrations	–	–	–
Nc1cccc(Nc2ncnc3c2cnn3Cc2ccccc2)c1 [Compound C9a]	–	–	–	–	–	higher efficacy	–	–
CCn1c(=O)[nH]c2cc(C(=O)Nc3ccc(OC)cc3)ccc2c1=O [Compound C5]	about 2 folds	higher than those in the medium	cell-permeable	significantly inhibited	inhibited A549 cell growth in a dosage- and time-dependent manner at sub μM concentrations	–	–	–
COc1ccc(Nc2ncnc3c2cnn3Cc2ccc(C)cc2)cc1 [Compound C9]	about 2 folds	higher than those in the medium	cell-permeable	significantly inhibited	inhibited A549 cell growth in a dosage- and time-dependent manner at sub μM concentrations	–	5	~1000

Source: PMC5555576, “Selective small-chemical inhibitors of protein arginine methyltransferase 5 with anti-lung cancer activity” (PLoS ONE, 2017)
